Holding throughout (format): binding
The target in experiment [1] is T1, BcChi-A (Gemmabryum coronatum, UniProt A9ZSX9, W126F).
T1 construct: gene bcchiA; recombinant, pET-22b in E. coli BL21(DE3); purified from cell lysate by acid treatment, Q-Sepharose, Sephacryl S-100; no tag mentioned; 15N-labelled for NMR; catalytic domain, loopless GH19
As to the kind of experiment: 1H-15N HSQC NMR titration, Asn20 chemical shift. The note with it: 50 mM sodium acetate pH 5.0, 90% H2O/10% D2O, 300 K; 0.2 mM 15N protein. An excerpt: (§1) 1H-15N HSQC NMR titration, Asn20 chemical shift on BcChi-A

For experiment [2], the target named is T2, BcChi-A (Gemmabryum coronatum, UniProt A9ZSX9, W126A).
T2 construct: gene bcchiA; recombinant, pET-22b in E. coli BL21(DE3); purified from cell lysate by acid treatment, Q-Sepharose, Sephacryl S-100; no tag mentioned; 15N-labelled for NMR; catalytic domain, loopless GH19
T2 sequence (A9ZSX9 entry or part of it W126A): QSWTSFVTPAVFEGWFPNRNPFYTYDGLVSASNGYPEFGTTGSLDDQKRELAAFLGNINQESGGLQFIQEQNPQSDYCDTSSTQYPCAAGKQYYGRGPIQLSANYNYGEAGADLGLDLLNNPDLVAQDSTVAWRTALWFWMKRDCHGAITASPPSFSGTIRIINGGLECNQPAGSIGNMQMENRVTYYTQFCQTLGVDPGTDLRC
As to the kind of experiment: 1H-15N HSQC NMR titration, Asn20 chemical shift. The note with it: 50 mM sodium acetate pH 5.0, 90% H2O/10% D2O, 300 K; 0.2 mM 15N protein.
Source text: as §1

Experiment [3] concerns the target T3, BcChi-A (Gemmabryum coronatum, UniProt A9ZSX9).
T3 construct: gene bcchiA; recombinant, pET-22b in E. coli BL21(DE3); purified from cell lysate by acid treatment, Q-Sepharose, Sephacryl S-100; no tag mentioned; 15N-labelled for NMR; catalytic domain, loopless GH19
The experiment is described as follows: 1H-15N HSQC NMR titration, Asn20 chemical shift. Particulars: 50 mM sodium acetate pH 5.0, 90% H2O/10% D2O, 300 K; 0.2 mM 15N protein.
Source text: as §1

The target in experiment [4] is T4, BcChi-A (Gemmabryum coronatum, UniProt A9ZSX9, E84Q).
T4 construct: gene bcchiA; recombinant, pET-22b in E. coli BL21(DE3); purified from cell lysate by acid treatment, Q-Sepharose, Sephacryl S-100; no tag mentioned; 15N-labelled for NMR; catalytic domain, loopless GH19
T4 sequence (A9ZSX9 entry or part of it E84Q): as the sequence (A9ZSX9 entry or part of it W126A) above, with E61Q, A103W counted along it
The experiment is described as follows: 1H-15N HSQC NMR titration, Asn20 bound-state intensity (slow exchange). The note with it: 50 mM sodium acetate pH 5.0, 90% H2O/10% D2O, 300 K; 0.2 mM 15N protein; catalytically inactive mutant. The text has this: (§2) 1H-15N HSQC NMR titration, Asn20 bound-state intensity (slow exchange) on BcChi-A

The target in experiment [5] is T5, BcChi-A (Gemmabryum coronatum, UniProt A9ZSX9, E84Q/W126A).
T5 construct: gene bcchiA; recombinant, pET-22b in E. coli BL21(DE3); purified from cell lysate by acid treatment, Q-Sepharose, Sephacryl S-100; no tag mentioned; 15N-labelled for NMR; catalytic domain, loopless GH19
T5 sequence (A9ZSX9 entry or part of it E84Q/W126A): as the sequence (A9ZSX9 entry or part of it W126A) above, with E61Q counted along it
The experiment is described as above. The note with it: 50 mM sodium acetate pH 5.0, 90% H2O/10% D2O, 300 K; 0.2 mM 15N protein; catalytically inactive mutant.
Source text: as §2

The target in experiment [6] is T6, BcChi-A (Gemmabryum coronatum, UniProt A9ZSX9, E84Q/W126F).
T6 construct: gene bcchiA; recombinant, pET-22b in E. coli BL21(DE3); purified from cell lysate by acid treatment, Q-Sepharose, Sephacryl S-100; no tag mentioned; 15N-labelled for NMR; catalytic domain, loopless GH19
T6 sequence (A9ZSX9 entry or part of it E84Q/W126F): as the sequence (A9ZSX9 entry or part of it W126A) above, with E61Q, A103F counted along it
The experiment is described as above. Particulars: 50 mM sodium acetate pH 5.0, 90% H2O/10% D2O, 300 K; 0.2 mM 15N protein; catalytically inactive mutant.
Source text: as §2

T3 sequence (A9ZSX9 entry or part of it): as the sequence (A9ZSX9 entry or part of it W126A) above, with A103W counted along it
T1 sequence (A9ZSX9 entry or part of it W126F): as the sequence (A9ZSX9 entry or part of it W126A) above, with A103F counted along it

For orientation: Kd means the constant that tells how readily two partners part at equilibrium. `CC(=O)N[C@H]1[C@H](O[C@H]2[C@H](O)[C@@H](NC(C)=O)C(O)O[C@@H]2CO)O[C@H](CO)[C@@H](O)[C@@H]1O` (stereo partly drawn) [(GlcNAc)2]: the Kd in experiment [1] stood at 22000 µM; in experiment [2] it was 24000 µM; in experiment [3], 4200 µM.

In the case of `CC(=O)N[C@H]1[C@H](O[C@H]2[C@H](O)[C@@H](NC(C)=O)[C@H](O[C@H]3[C@H](O)[C@@H](NC(C)=O)C(O)O[C@@H]3CO)O[C@@H]2CO)O[C@H](CO)[C@@H](O[C@@H]2O[C@H](CO)[C@@H](O[C@@H]3O[C@H](CO)[C@@H](O[C@@H]4O[C@H](CO)[C@@H](O)[C@H](O)[C@H]4NC(C)=O)[C@H](O)[C@H]3NC(C)=O)[C@H](O)[C@H]2NC(C)=O)[C@@H]1O` (stereo partly drawn) [(GlcNAc)6], the Kd is 14 µM in experiment [4], 200 µM in experiment [5] and 1000 µM in experiment [6].

For the origin of these results see paper PMC7844276, “Multi-functionality of a tryptophan residue conserved in substrate-binding groove of GH19 chitinases” (Scientific Reports, 2021).
